Results published in patent publication US6649605B2, “Treatment of tension-type headaches with NMDA receptor antagonists” (Head Explorer A/S, priority 1996, dated 2003).
“Also recorded” adds a separate entry of the source.

Tests used:
Format in all cases: in vivo, human
[1] = system: patients with chronic tension-type headache; assay: Pressure pain detection thresholds (electronic pressure algometer) after L-NMMA
Text: (§1) Sixteen patients with a diagnosis of chronic tension-type headache according to the criteria of the International Headache Society (Headache Classification Committee 1988) were included (Table XVII). Five of the patients had coexisting infrequent migraine (<four days/year). The patients were recruited from the out-patient headache clinic at Glostrup University Hospital without respect to presence or absence of myofascial tenderness. All patients underwent a general physical and a neurological examination and completed a diagnostic headache diary during a 4-week run-in period (Russell et al. 1992). […]
(§2) The recordings were performed in a standardized manner by the same observer, a trained technician (HA), throughout the study. All parameters were recorded at baseline, 60 and 120 minutes after start of infusion. […] Headache intensity was measured on a 100 mm Visual Analog Scale (VAS) (0-no headache and 100-worst imaginable headache) before, during and after start of infusion.
Pressure pain thresholds Pressure pain detection thresholds (PPDTs) were measured at the dorsum of the second finger (middle phalanx) and at a fixed point at the anterior part of the temporal muscle as previously described (Bendtsen et al. 1996b). […] Each threshold was calculated as the mean of five consecutive determinations performed with intervals of approximately 30 seconds. […]

[2] = system: patients with chronic tension-type headache; assay: Total Tenderness Score of pericranial myofascial tissues after L-NMMA; conditions: 6 mg/kg i.v., hydrochloride
Text: as §1, §2
Total tenderness. […] Tenderness was scored on a 4-point (0-3) scale at each location (local tenderness score) and values from left and right sides were summed to a Total Tenderness Score (TTS) (maximum possible score=48). […]

[3] = system: patients with chronic tension-type headache; assay: Double-blind crossover i.v. L-NMMA vs placebo: headache intensity on VAS and VRS
Text: Sixteen patients With a diagnosis of chronic tension-type headache according to the criteria of the International Headache Society, (headache Classification Committee 1988) were recruited from the out-patient headache clinic at Glostrup Hospital. There were 12 women and 4 men with a mean age (range) of 38.5 (23-52) years. Five patients with coexisting infrequent migraine (£ one day/month) were accepted. All patients completed a diagnostic headache diary during a 4-week run-in period (Russell et al. 1992). At screening, a full physical and neurological examination, including 12-lead ECG were carried out. Blood samples for routine haematological and biochemical testing, and urine sample for urine analysis were taken. The patients were not allowed to take analgesics 12 hours prior to the treatment. Exclusion criteria were: daily medication (including prophylactic headache therapy but not oral contraceptives); pregnant or breast feeding women; abuse of analgesics (corresponding to>2 gm of aspirin/day) or alcohol, serious somatic or psychiatric diseases including depression (Hamilton Depression Score ^317 (Hamilton 1960)); ischemic heart disease; a supine diastolic blood pressure >90 mmHg or heart rate <50 beats per minute at study entry. All patients gave written informed consent to participate in the study, which was approved by The local ethics committee and conducted in accordance with the Declaration of Helsinki.
Randomization (Med.Stat) and drug preparation were performed by staff not involved in the study. The medication was given over 15 minutes into an antecubital vein (Braun Perfusor). The following parameters were measured at baseline and […] post administration: headache intensity on a 100-mm Visual Analog Scale (VAS) (0-no headache and 100-worst imaginable headache) and on a Verbal Rating Scale (VRS) from 0-10 (0-no headache; 5-moderate headache; 10-worst imaginable headache). Blood pressure and pulse rate were measured 5 minutes prior to administration of treatment and at 5, 10, 15, 20, 25, 30, 60, 90 and 120 minutes post administration. Twelve-lead ECG was monitored continuously. Any adverse events were recorded. Patient with unrelieved headache at 120 minutes post treatment were allowed to take rescue medication. All patients were asked to record details of the following on a diary card at 4, 8, 12, 16, 20 and 24 hours post administration, headache intensity on VRS, any medication taken and adverse events. Between 4-7 days after each treatment, the patients returned to the clinic, the diary cards were collected and any adverse events were noted.
Primary endpoint was the reduction of pain intensity over time on active treatment compared to placebo. The secondary endpoints were reduction of pain intensity at 30, 60, 90 and 120 minutes post dosing on VAS and VRS compared to pre-treatment pain score within each treatment. Comparison of pain intensity on VAS, blood pressure and pulse rate over time between treatments were performed With ANOVA. Paired-Samples T Test was used to compare pre-treatment pain score on VAS with pain score at 30, 60, 90, 120 minutes post dosing within each treatment. The sum of differences between the pre-treatment VRS score and the VRS score at 30, 60, 90, 120 minutes post dosing was calculated in order to obtained a summary measure of pain score for each treatment (Matthews et al. 1990). These sums of differences for each treatment were compared by Wilcoxon Signed Rank test. Five percent was accepted as level of significance.
The recordings were performed in a standardized manner by the same observer, a trained technician (HA), throughout the study. All parameters were recorded at baseline, 60 and 120 minutes after start of infusion. The trial was designed as a double blind, placebo controlled, crossover study. […] The patients were not allowed to take analgesics 12 hours prior to the examination. […]

CN=C(N)NCCC[C@H](N)C(=O)O.Cl [L-NMMA, L-N^G methyl arginine hydrochloride]
PPDTs compared with pre-treatment values ([1]; finger and temporal region, hydrochloride): no changes in PPDTs at 60 and 120 minutes; also recorded: largely unchanged
PPDTs compared with placebo ([1]; finger p=0.78, temporal region p=0.77): no significant difference
TTS compared with baseline ([2]; p=0.007 and p=0.008): significantly reduced at 60 and 120 minutes; also recorded: significantly), reduced at 60 and 120 minutes
Tenderness score (summary) compared with placebo ([2]; p=0.11): tended to be reduced; also recorded: tended to be reduced more; also recorded: not significant
Pain intensity (VAS) over time compared with placebo ([3]; 6 mg/kg i.v., 16 patients, ANOVA, hydrochloride): reduced pain intensity (VAS) over time significantly more than placebo; also recorded: effective in the treatment of patients with chronic tension-type headache; also recorded: significantly reduced
Pain score compared with pre-treatment value within treatment ([3]; 6 mg/kg i.v., post treatment time points, hydrochloride): significantly reduced after 30, 60, 90 and 120 minutes; also recorded: significantly reduced at each time point
Pain score on VAS, 30 minutes ([3]; 30 minutes post dosing, 100-mm VAS, 6 mg/kg i.v., mean (SD)): 38 ± 18
Pain score on VAS, 60 minutes ([3]; 60 minutes post dosing, 100-mm VAS, 6 mg/kg i.v., mean (SD)): 35 ± 18
Pain score on VAS, 90 minutes ([3]; 90 minutes post dosing, 100-mm VAS, 6 mg/kg i.v., mean (SD)): 34 ± 21
Pain score on VAS, 120 minutes ([3]; 120 minutes post dosing, 100-mm VAS, 6 mg/kg i.v., mean (SD)): 33 ± 21
Pain intensity on VRS compared with placebo ([3]; Verbal Rating Scale 0-10, 6 mg/kg i.v., p=0.02): significantly lower
Duration of antinociceptive effect on headache intensity and of reduction of muscle hardness and tenderness ([3]; after start of infusion, 6 mg/kg i.v.): at least 120 minutes
Pain score on VAS, baseline ([3]; before treatment, 100-mm VAS, 6 mg/kg i.v. over 15 minutes, mean (SD), 16 patients): 49 ± 16
